Assay results from patent US20230026163A1, “ANTICANCER COMPOUND AND MEDICAL USE THEREOF” (ASCENTAWITS PHARMACEUTICALS, LTD., priority 2019, published 2023).

How the values were obtained:
[1] = tested on: H460 non-small cell lung cancer; test: Cytotoxicity test of human tumor cell line in vitro (CTG, 72 hours); format: cell-based; settings: for IC50: Homo sapiens, NCI-H460, H460, 72 hours exposure; for Anticancer activity compared to the compound of control 2: H460
Procedure: IC50 values were obtained by the following methods. The cancer cells were exposed to various concentrations of compounds for 72 hours. Following by washing steps, fresh medium was added to allow the growth of the cancer cells. The cancer cells were stained to obtain cell viability. Then, comparisons were made with the medium-only control.
Specifically, the exponentially growing cells were seeded in 96-well plates at a density of 2×10^3 cells/well, and 100 μL/well. The cells were incubated for 24 hours at 37° C., in 5% CO2, in 95% air, and 100% relative humidity. Next, 99 μL of culture medium was added. The compounds were dissolved in 100% DMSO at 200 times the desired final test concentration. Upon addition of compounds, the compounds were further diluted to 4 times the desired final concentration with a complete medium. Aliquots of 1 μL of compounds at specific concentration were added to the micro-wells containing 199 μL of medium to obtain the final compound concentrations as reported. After the compounds were added, the plates were incubated for an addition 72 hours at 37° C., in 5% CO2, in 95% air, and 100% relative humidity.
The plates to be test containing the cells were equilibrated at room temperature for 30 minutes, and 100 μL of medium per well was discarded. 100 μL of CTG reagent (CelltiterGlo Kit) was added to each well. The plates were placed in a fast-shaker to shake for 2 minutes, and placed at room temperature for 30 minutes in the dark. Chemoluminescence signal values were read with Envision instrument.

[2] = target: P-glycoprotein (Homo sapiens, UniProt P08183); test: in vitro; settings: for Papp A→B at 2 h / Papp B→A at 2 h / recovery at 2 h: dog; for Papp A→B at 2 h / Papp B→A at 2 h: MDCK-MDR1; for P-glycoprotein substrate (experimental conclusion): with vs without Verapamil
Sequence of P-glycoprotein (P08183 whole entry): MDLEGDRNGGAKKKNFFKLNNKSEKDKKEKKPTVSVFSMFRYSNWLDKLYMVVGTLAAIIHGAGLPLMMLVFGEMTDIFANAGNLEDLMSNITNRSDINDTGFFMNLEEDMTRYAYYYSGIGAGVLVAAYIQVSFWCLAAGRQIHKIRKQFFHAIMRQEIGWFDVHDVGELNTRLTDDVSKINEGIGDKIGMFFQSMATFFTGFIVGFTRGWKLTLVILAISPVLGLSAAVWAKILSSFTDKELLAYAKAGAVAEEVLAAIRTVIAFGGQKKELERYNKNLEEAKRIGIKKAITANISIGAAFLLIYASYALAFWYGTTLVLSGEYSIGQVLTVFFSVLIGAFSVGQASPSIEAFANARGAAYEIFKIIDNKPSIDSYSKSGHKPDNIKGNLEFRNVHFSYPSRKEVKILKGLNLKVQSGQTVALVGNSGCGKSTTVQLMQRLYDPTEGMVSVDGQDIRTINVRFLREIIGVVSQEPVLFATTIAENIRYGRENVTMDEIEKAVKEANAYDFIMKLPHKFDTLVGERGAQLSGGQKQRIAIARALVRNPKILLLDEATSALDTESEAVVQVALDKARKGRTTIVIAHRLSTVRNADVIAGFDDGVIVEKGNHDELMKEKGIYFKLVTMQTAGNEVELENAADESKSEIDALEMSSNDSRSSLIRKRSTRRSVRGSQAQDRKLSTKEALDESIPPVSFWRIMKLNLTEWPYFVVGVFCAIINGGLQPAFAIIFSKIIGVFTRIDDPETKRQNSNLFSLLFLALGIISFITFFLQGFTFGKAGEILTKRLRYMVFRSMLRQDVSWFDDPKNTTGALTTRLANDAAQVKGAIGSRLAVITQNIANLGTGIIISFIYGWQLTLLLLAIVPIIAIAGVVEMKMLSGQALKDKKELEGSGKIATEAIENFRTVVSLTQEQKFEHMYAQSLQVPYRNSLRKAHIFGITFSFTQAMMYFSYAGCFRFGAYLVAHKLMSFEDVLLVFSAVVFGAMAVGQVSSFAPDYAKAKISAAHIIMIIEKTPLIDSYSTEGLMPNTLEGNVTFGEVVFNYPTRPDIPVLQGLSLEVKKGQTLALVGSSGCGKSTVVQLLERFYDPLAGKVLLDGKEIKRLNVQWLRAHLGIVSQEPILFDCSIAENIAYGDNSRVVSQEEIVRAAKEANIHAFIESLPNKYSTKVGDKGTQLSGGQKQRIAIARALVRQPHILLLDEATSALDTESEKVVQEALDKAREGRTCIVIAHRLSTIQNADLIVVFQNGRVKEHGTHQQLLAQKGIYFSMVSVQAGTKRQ
Procedure: MDCKII-MDR1 cells were incubated in cell culture flasks. The incubator was set at 37° C., 5% CO2, and a guaranteed relative humidity of 95%. When the cells reached 70 to 90% confluence, the cells may be seeded to transwells.
50 μL of the cell suspensions were added to the apical chambers of each well of the 96-well transwells at a final seeding density of 5.45×10^5 cells/cm^2.
MDCKII-MDR1 cells may be fully confluent and differentiated after 4 to 8 days of incubation. At this time, the cells may be applied to penetration test. The monolayer membrane resistance was measured with a resistance meter (Millipore), and the resistance per well was recorded. After the test, the transwells were returned to the incubator.
The transwells with MDCKII-MDR1 cells were taken from the incubator. The cell monolayers were rinsed twice with buffer and incubated at 37° C. for 30 minutes.
The rate of the compounds from an apical end to a basolateral end was determined. 75 μL of the buffer containing the test sample was added to each well of the apical chambers (apical end), and 235 μL of the buffer was added to each well of the basolateral chambers (basolateral end).
The rate of the compounds transporting from the basolateral end to the apical end was determined. 75 μL of the buffer was added to the apical chambers (apical end), and 235 μL of the buffer containing the test sample was added to the basolateral chamber (basolateral end).
After the apical chambers and the basolateral chambers were combined respectively, the transwells were incubated at 37° C. for 2 hours.
After incubation, 50 μL of the sample from each well of the apical chambers and the basolateral chambers of the transwells was transferred to new sample tubes respectively. 200 μL of acetonitrile (100 nM of Alprazolam, 200 nM of Labetalol, 200 nM of caffeine, and 2 μM of Ketoprofen) as an internal standard was added to the sample tubes, vortexed for 10 minutes, and centrifuged at 3220 g for 30 minutes. 100 μL of the supernatant was taken and diluted with an equal volume of water for LC-MS/MS analysis. Each sample was incubated in triplicate.
Peak-areas were calculated from ion chromatography results. The apparent permeability coefficient (Papp, unit: cm/s×10-6) of the compounds was calculated by the following formula.
In the formula, VA was the volume of the solution at the acceptor end (Ap→B1 was 0.235 mL, and B1→Ap was 0.075 mL), Area was the membrane area (0.143 cm^2) of 96-well transwell, time was the incubation time (unit: s), [drug]acceptor referred to the drug concentration of the acceptor end after incubation, and [drug]initial,donor referred to the initial concentration of the donor end before incubation.
Efflux ratio was calculated with the following formula.
In the formula, Papp(B_A) was the apparent permeability coefficient from the basolateral end to the apical end, and Papp(A-B) was the apparent permeability coefficient from the apical end to the basolateral end.
The recovery rate was calculated with the following formula.
In the formula, VA was the solution volume of the acceptor end (unit: mL), VD was the solution volume of the donor end (unit: mL), [drug]acceptor referred to the drug concentration of the acceptor end after incubation, and [drug]initial,donor referred to the initial concentration of the donor end before incubation.

[3] = Maximal tolerance dose (MTD) experiment; format: in vivo, ICR mice
Procedure: 18 ICR mice, 9 females/9 males, were selected for the experiment. According to gender and body weight, the mice were randomly divided into a 10 mg/kg group, a 20 mg/kg group, and a 40 mg/kg group of the S-configuration of compound 01, with 3 females/3 males in each group. By intravenous injection, the 10 mg/kg group of the S-configuration of compound 01 was administered with 1 mg/ml of the administration concentration, 10 ml/kg of the administration volume, and 10 mg/kg of the dose. The 20 mg/kg group containing the S-configuration of compound 01 was administered with 2 mg/ml of the administration concentration, 10 ml/kg of the administration volume, and 20 mg/kg of the dose. The 40 mg/kg group containing the S-configuration of compound 01 was administered with 4 mg/ml of the administration concentration, 10 ml/kg of the administration volume, and 40 mg/kg of the dose. The mice was administered once a day for 5 consecutive days, and recovered for 2 weeks after the last administration. The mice were closely observed for 2 hours after administration of the daily drug. The mice were observed twice a day in the morning and afternoon on the non-administration day. During the experiment, body weight and food intake were measured twice a week. The dead animals and all the survival animals were subjected to gross necropsy on the 14th day after the last administration. The diseased organic were grossly necropsied for histopathological examination.
18 ICR mice, 9 females/9 males, were selected for the experiment. According to gender and body weight, the mice were randomly divided into a 10 mg/kg group, a 20 mg/kg group, and a 40 mg/kg group of the R-configuration of compound 01, with 3 females/3 males in each group. By intravenous injection, the 10 mg/kg group of the R-configuration of compound 01 was administered with 1 mg/ml of the administration concentration, 10 ml/kg of the administration volume, and 10 mg/kg of the dose. The 20 mg/kg group of the R-configuration of compound 01 was administered with 2 mg/ml of the administration concentration, 10 ml/kg of the administration volume, and 20 mg/kg of the dose. The 40 mg/kg group of the R-configuration of compound 01 was administered with 4 mg/ml of the administration concentration, 10 ml/kg of the administration volume, and 40 mg/kg of the dose. The mice was administered once a day for 5 consecutive days, and recovered for 1 week after the last administration. […] To find the maximum tolerated dose, a second cycle of dosing was required. The doses were adjusted and administered for 5 consecutive days.
The mice were closely observed for 2 hours after administration of the daily drug. The mice were observed twice a day in the morning and afternoon on the non-administration day. During the experiment, body weight and food intake were measured twice a week. The dead animals and all the survival animals were subjected to gross necropsy on the 14th day after the last administration. The diseased organic were grossly necropsied for histopathological examination.

[4] = MDCK-MDR1, Recovery (%) AP-BL, Verapamil 0 μM
[5] = MDCK-MDR1, Recovery (%) AP-BL, Verapamil 100 μM
[6] = MDCK-MDR1, Recovery (%) BL-AP, Verapamil 0 μM
[7] = MDCK-MDR1, Recovery (%) BL-AP, Verapamil 100 μM

For `CC(OP(=O)(N1CC1)N1CC1)c1ccc([N+](=O)[O-])c2cccnc12` (stereo not shown) [Compound 12], the IC50 [1] was 35.2 nM.
For `O=[N+]([O-])c1cccc2cc(COP(=O)(N3CC3)N3CC3)ccc12` [Compound 24], the IC50 [1] was 478 nM.
For `O=[N+]([O-])c1cc(COP(=O)(N2CC2)N2CC2)cc2ccccc12` [Compound 25], the IC50 [1] was 106 nM.
For `CC(OP(=O)(N1CC1)N1CC1)c1ccc([N+](=O)[O-])c2ccncc12` (stereo not shown) [Compound 13], the IC50 [1] was 12.9 nM.
`CC(OP(=O)(N1CC1)N1CC1)c1ccc([N+](=O)[O-])c2cnccc12` (stereo not shown) [Compound 14] showed an IC50 [1] of 3.82 nM, a Papp A→B at 2 h [2] of 12.9 ×10⁻⁶ cm/s and a Papp B→A at 2 h [2] of 26.3 ×10⁻⁶ cm/s. For the same compound, the recovery at 2 h [2, 4] was 91.1%, the recovery at 2 h [2, 5] was 80.8% and the recovery at 2 h [2, 6] was 104%. For the same compound, the recovery at 2 h [2, 7] was 90.8% and the “P-glycoprotein substrate (experimental conclusion)” value [2] was “not P-glycoprotein substrates”.
For `O=[N+]([O-])c1ccc(C(OP(=O)(N2CC2)N2CC2)C(F)(F)F)c2cccnc12` (stereo not shown) [Compound 19], the IC50 [1] was 311 nM.
In the case of `O=[N+]([O-])c1ccc(COP(=O)(N2CC2)N2CC2)c2cccnc12` [Compound 22], the IC50 [1] is reported as 200 nM.
`O=[N+]([O-])c1cccc2ccc(COP(=O)(N3CC3)N3CC3)cc12` [Compound 06] showed an IC50 [1] of 172 nM.
In the case of `CC(OP(=O)(N1CC1)N1CC1)c1ccc([N+](=O)[O-])c2ncccc12` (stereo not shown) [Compound 15], the IC50 [1] is reported as 145 nM.
`O=[N+]([O-])c1ccc(COP(=O)(N2CC2)N2CC2)c2ccncc12` [Compound 21] gave an IC50 [1] of 7.17 nM.
Work on `CC(OP(=O)(N1CC1)N1CC1)c1ccc2cccc([N+](=O)[O-])c2c1` (stereo not shown) [Compound 07] yielded an IC50 [1] of 168 nM.
`O=[N+]([O-])c1cccc2ccc(C(OP(=O)(N3CC3)N3CC3)C(F)(F)F)cc12` (stereo not shown) [Compound 08] showed an IC50 [1] of 3840 nM.
For `COCCc1ccc(OCC(O)CNC(C)C)cc1` (stereo not shown) [Metoprolol, reference compound], the Papp A→B at 2 h [2] was 26 ×10⁻⁶ cm/s and the Papp B→A at 2 h [2] was 18.9 ×10⁻⁶ cm/s.
For `O=[N+]([O-])c1ccc([C@H](OP(=O)(N2CC2)N2CC2)C(F)(F)F)c2ccccc12` [S-configuration of compound 01], the “Clinical symptoms after administration” value ([3]; 10 mg/kg group and 20 mg/kg group) was “in good condition”, the “Clinical symptoms after administration” value ([3]; 40 mg/kg group) was “unsteady gait, deepened breathing, accelerated breathing, and decreased spontaneous activity” and the Animals died ([3]; 40 mg/kg group, i.v., 5 consecutive days) was 3 of the 6. The “Effect on animal body weight” value ([3]; after intravenous injection in mice) was “increased slowly”, the “Gross necropsy of the surviving animals” value ([3]; after the recovery period) was “on obvious gross pathological changes” and the MTD at 5 days ([3]; both sexes, ICR, mouse, in vivo, iv, ICR mice, intravenous injection, once a day for 5 consecutive days, read-out: Maximum tolerated dose / MTD result) was 20 mg/kg. For the same compound, the “Average food intake vs normal mice” value ([3]; each administration group) was “no significant difference”.
For `O=[N+]([O-])c1ccc(C(OP(=O)(N2CC2)N2CC2)C(F)(F)F)c2ncccc12` (stereo not shown) [Compound 16], the IC50 [1] was 34.9 nM.
`O=[N+]([O-])c1ccc(C(OP(=O)(N2CC2)N2CC2)C(F)(F)F)c2ccncc12` (stereo not shown) [Compound 18] showed an IC50 [1] of 7.88 nM.
For `O=[N+]([O-])c1cccc2c(COP(=O)(N3CC3)N3CC3)cccc12` [Compound 09], the IC50 [1] was 1650 nM.
With `CC(OP(=O)(N1CC1)N1CC1)c1cccc2c([N+](=O)[O-])cccc12` (stereo not shown) [Compound 10] the IC50 [1] was 692 nM.
Work on `O=[N+]([O-])c1ccc(COP(=O)(N2CC2)N2CC2)c2ccccc12` [Compound 02] yielded an IC50 [1] of 755 nM.
`O=[N+]([O-])c1ccc(COP(=O)(N2CC2)N2CC2)c2ncccc12` [Compound 20] showed an IC50 [1] of 41.5 nM, a Papp A→B at 2 h [2] of 33.7 ×10⁻⁶ cm/s and a Papp B→A at 2 h [2] of 21.8 ×10⁻⁶ cm/s. It also gave a recovery at 2 h [2, 4] of 92.7%, a recovery at 2 h [2, 5] of 87.6% and a recovery at 2 h [2, 6] of 96.3%. For the same compound, the recovery at 2 h [2, 7] was 96.2% and the “P-glycoprotein substrate (experimental conclusion)” value [2] was “not P-glycoprotein substrates”.
For `CC(OP(=O)(N1CC1)N1CC1)c1ccc2ccccc2c1[N+](=O)[O-]` (stereo not shown) [Compound 04], the “Anticancer activity compared to the compound of control 2” value [1] was “obviously worse” and the IC50 [1] was 9280 nM.
In the case of `O=[N+]([O-])c1c(C(OP(=O)(N2CC2)N2CC2)C(F)(F)F)ccc2ccccc12` (stereo not shown) [Compound 05], the “Anticancer activity compared to the compound of control 2” value [1] is reported as “obviously worse” and the IC50 [1] is reported as 9020 nM.
`O=[N+]([O-])c1cccc2c(C(OP(=O)(N3CC3)N3CC3)C(F)(F)F)cccc12` (stereo not shown) [Compound 11] gave an IC50 [1] of 7650 nM.
